Data taken from US7202267B2, “Acyloxypyrrolidine derivatives, preparation thereof and application thereof in therapeutic” (Sanofi-aventis, priority 2002, dated 2007).

Columns and labels:
human V1b receptors = molecular target: T1, human V1b receptors (Homo sapiens, UniProt P47901); experiment: Displacement of [3H]-AVP binding to human V1b receptors; conditions: cellular or adenohypophyseal membrane preparations
T1 construct: host or cells: cellular or adenohypophyseal membrane preparations
T1 sequence (P47901 1-424): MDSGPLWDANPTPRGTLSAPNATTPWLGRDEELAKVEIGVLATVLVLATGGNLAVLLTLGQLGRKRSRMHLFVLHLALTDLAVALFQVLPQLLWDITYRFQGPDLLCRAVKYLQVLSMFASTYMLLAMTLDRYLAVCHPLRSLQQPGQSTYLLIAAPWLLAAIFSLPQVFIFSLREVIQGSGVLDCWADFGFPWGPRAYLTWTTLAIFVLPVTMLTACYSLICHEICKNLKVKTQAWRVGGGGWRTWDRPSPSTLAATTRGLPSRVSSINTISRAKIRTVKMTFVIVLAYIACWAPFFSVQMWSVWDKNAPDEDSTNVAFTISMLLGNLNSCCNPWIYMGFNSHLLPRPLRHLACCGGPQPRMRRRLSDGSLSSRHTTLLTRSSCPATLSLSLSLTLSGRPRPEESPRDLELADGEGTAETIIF
Procedure: (§1) The affinity of the compounds of formula (I) according to the invention, for V1b receptors for arginine-vasopressin, was determined in vitro using the method described by Y. DE KEYSER et al., Febs Letters, 1994, 356, 215–220. This method consists in studying, in vitro, the displacement of […] arginine-vasopressin ([^3H]-AVP) to V1b receptors present on cellular or adenohypophyseal membrane preparations bearing rat or human V1b receptors.

human V1a receptors = molecular target: T2, human V1a receptors (Homo sapiens, UniProt P37288); experiment: Displacement of [3H]-AVP binding to human V1a receptors; conditions: cellular or membrane preparations
T2 construct: host or cells: cellular or membrane preparations
Procedure: as §1, with “V1a” for “V1b”, “M. THIBONNIER” for “Y. DE KEYSER”, “J. Biol. Chem.,” for “Febs Letters,”, “269, 3304–3310.” for “356, 215–220.”, “or” for “or adenohypophyseal”

T2 sequence (P37288 whole entry): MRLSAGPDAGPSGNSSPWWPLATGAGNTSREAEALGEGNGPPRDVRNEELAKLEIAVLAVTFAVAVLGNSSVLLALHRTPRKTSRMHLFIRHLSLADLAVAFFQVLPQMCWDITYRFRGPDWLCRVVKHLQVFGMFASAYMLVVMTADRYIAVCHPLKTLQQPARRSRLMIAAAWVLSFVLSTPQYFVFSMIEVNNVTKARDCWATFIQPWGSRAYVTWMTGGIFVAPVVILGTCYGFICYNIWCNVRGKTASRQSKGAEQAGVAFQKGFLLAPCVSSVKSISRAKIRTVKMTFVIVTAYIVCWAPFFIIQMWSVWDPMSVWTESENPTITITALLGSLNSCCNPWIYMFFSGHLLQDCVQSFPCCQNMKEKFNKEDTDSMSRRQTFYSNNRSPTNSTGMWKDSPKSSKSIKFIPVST

SMILES: COc1ccc(S(=O)(=O)N2C(=O)[C@@](c3ccccc3OC)(N3C[C@H](OC(C)=O)C[C@H]3C(=O)N(C)C)c3cc(Cl)ccc32)c(OC)c1 [Example 1, (3R,5S)-1-[(3R)-5-chloro-1-[(2,4-dimethoxyphenyl)sulfonyl]-3-(2-methoxyphenyl)-2-oxo-2,3-dihydro-1H-indol-3-yl]-5-[(dimethylamino)carbonyl]-3-pyrrolidinyl acetate]
- IC50 (human V1b receptors): 3.4 nM
- IC50 (human V1a receptors): 84 nM
